These results are taken from ChEMBL document CHEMBL4507319 (2021).

The target of experiment [1] is Serine/threonine-protein kinase SIK1 (Homo sapiens) (UniProt P57059). The experiment can be described thus: SIK(h) Eurofins kinase panel. The following applies: Compound concentration 1.0 uM.
The subject of the next experiment is HeLa. Put plainly: HeLa cell line Proliferation assay. To be noted: time 3 day. It counts as functional, Homo sapiens.
In experiment [2] the target is ALK tyrosine kinase receptor (Homo sapiens) (UniProt Q9UM73). The experiment can be described thus: ALK(h) Eurofins kinase panel. The following applies: Compound concentration 1.0 uM.
The target in experiment [3] is T1, Calcium/calmodulin-dependent protein kinase type IV (Homo sapiens) (UniProt Q16566).
T1 sequence (whole entry): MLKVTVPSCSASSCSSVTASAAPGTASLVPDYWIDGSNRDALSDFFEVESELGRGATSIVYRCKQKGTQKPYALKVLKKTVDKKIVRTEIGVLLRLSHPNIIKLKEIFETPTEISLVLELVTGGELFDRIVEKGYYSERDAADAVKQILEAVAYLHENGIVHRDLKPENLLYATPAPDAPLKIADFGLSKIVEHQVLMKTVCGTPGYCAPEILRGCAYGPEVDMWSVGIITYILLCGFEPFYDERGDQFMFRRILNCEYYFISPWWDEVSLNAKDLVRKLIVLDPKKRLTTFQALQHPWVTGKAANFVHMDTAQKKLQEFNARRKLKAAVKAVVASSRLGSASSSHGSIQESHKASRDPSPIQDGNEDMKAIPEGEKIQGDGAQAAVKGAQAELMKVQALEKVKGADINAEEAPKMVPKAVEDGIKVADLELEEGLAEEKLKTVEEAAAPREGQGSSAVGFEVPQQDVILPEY
Put plainly: CaMKIV(h) Eurofins kinase panel. To be noted: Compound concentration 1.0 uM.

Experiment [4] deals with Homeodomain-interacting protein kinase 1 (Homo sapiens) (UniProt Q86Z02). Put plainly: HIPK1(h) Eurofins kinase panel. The following applies: Compound concentration 1.0 uM.
Homeodomain-interacting protein kinase 1 (Homo sapiens), sequence (Q86Z02 whole entry, looked up): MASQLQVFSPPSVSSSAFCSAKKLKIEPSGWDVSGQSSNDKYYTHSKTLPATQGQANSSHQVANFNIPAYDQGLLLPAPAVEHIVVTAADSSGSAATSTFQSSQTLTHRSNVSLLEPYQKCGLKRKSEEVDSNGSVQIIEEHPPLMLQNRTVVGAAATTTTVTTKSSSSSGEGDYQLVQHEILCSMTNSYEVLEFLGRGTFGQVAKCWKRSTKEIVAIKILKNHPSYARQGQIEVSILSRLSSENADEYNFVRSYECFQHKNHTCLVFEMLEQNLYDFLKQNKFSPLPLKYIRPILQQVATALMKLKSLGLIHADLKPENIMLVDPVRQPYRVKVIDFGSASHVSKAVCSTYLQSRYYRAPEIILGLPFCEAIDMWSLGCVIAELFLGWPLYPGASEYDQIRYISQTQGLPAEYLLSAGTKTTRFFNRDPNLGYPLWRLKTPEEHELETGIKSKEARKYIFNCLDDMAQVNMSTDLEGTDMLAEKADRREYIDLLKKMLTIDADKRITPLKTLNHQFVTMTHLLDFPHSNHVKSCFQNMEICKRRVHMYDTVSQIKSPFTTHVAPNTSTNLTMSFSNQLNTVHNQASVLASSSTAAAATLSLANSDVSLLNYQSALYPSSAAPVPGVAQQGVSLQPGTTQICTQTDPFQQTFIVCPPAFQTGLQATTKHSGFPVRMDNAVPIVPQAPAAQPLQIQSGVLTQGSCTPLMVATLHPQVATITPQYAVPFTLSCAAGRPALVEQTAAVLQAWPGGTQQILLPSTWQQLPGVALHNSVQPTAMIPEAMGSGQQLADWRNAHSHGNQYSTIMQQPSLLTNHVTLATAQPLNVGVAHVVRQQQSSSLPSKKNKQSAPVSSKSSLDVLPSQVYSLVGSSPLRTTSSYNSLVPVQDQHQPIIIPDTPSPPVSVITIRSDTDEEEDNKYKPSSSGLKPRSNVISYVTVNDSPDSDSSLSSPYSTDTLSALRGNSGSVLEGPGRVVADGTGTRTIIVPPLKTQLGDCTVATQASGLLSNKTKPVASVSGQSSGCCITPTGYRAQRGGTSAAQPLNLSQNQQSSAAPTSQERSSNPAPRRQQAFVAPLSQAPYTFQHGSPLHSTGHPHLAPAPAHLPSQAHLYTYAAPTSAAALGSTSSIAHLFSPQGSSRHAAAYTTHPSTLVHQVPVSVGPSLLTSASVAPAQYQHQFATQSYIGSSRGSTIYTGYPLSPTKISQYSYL
For experiment [5], the target named is T2, Serine/threonine-protein kinase BRSK2 (Homo sapiens) (UniProt Q8IWQ3).
T2 sequence (whole entry): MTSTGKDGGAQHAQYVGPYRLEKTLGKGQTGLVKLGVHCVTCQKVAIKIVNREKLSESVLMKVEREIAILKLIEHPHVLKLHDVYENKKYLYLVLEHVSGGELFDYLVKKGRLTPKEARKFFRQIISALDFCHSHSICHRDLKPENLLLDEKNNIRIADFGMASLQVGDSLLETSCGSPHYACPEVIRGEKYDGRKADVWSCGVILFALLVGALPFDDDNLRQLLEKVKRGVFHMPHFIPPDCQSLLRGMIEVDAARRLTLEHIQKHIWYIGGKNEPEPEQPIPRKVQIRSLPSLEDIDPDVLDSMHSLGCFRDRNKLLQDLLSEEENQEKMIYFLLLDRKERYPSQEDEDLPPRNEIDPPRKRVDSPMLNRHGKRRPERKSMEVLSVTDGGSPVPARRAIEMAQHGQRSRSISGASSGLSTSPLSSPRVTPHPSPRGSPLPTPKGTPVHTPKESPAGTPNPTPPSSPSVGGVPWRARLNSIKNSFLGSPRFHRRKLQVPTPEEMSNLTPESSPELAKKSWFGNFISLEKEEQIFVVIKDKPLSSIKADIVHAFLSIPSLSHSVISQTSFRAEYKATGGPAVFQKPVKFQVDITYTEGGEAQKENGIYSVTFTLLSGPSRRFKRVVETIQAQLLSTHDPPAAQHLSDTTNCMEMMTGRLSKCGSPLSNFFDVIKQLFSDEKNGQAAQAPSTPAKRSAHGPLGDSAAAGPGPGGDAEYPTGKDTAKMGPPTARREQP
Put plainly: BrSK2(h) Eurofins kinase panel. To be noted: Compound concentration 1.0 uM.

Experiment [6] has as its target Serine/threonine-protein kinase 24 (Homo sapiens, UniProt Q9Y6E0).
The target of experiment [7] is T3, Serine/threonine-protein kinase Nek11 (Homo sapiens) (UniProt Q8NG66).
T3 sequence (whole entry): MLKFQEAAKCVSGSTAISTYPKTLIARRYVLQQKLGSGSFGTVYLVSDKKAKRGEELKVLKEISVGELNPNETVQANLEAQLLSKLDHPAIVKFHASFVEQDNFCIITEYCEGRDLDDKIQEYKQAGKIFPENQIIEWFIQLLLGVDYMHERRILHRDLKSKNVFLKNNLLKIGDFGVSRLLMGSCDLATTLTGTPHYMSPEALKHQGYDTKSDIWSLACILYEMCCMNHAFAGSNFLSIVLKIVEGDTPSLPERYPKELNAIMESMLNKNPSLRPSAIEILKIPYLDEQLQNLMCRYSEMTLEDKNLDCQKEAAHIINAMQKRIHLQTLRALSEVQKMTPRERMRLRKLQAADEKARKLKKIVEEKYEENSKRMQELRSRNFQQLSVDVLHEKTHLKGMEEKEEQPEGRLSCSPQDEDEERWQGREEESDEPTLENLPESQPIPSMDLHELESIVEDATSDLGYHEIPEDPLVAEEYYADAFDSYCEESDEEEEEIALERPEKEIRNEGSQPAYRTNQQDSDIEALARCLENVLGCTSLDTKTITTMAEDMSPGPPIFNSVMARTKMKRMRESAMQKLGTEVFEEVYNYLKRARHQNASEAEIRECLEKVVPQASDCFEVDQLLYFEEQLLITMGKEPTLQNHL
The experiment can be described thus: NEK11(h) Eurofins kinase panel. To be noted: Compound concentration 1.0 uM.

Experiment [8] has as its target Serine/threonine-protein kinase pim-1 (Homo sapiens) (UniProt P11309). The experiment can be described thus: Pim-1(h) Eurofins kinase panel. To be noted: Compound concentration 1.0 uM.
The target in experiment [9] is Hepatocyte growth factor receptor (Homo sapiens) (UniProt P08581). To be noted: Compound concentration 1.0 uM.
Hepatocyte growth factor receptor (Homo sapiens), sequence (P08581 whole entry): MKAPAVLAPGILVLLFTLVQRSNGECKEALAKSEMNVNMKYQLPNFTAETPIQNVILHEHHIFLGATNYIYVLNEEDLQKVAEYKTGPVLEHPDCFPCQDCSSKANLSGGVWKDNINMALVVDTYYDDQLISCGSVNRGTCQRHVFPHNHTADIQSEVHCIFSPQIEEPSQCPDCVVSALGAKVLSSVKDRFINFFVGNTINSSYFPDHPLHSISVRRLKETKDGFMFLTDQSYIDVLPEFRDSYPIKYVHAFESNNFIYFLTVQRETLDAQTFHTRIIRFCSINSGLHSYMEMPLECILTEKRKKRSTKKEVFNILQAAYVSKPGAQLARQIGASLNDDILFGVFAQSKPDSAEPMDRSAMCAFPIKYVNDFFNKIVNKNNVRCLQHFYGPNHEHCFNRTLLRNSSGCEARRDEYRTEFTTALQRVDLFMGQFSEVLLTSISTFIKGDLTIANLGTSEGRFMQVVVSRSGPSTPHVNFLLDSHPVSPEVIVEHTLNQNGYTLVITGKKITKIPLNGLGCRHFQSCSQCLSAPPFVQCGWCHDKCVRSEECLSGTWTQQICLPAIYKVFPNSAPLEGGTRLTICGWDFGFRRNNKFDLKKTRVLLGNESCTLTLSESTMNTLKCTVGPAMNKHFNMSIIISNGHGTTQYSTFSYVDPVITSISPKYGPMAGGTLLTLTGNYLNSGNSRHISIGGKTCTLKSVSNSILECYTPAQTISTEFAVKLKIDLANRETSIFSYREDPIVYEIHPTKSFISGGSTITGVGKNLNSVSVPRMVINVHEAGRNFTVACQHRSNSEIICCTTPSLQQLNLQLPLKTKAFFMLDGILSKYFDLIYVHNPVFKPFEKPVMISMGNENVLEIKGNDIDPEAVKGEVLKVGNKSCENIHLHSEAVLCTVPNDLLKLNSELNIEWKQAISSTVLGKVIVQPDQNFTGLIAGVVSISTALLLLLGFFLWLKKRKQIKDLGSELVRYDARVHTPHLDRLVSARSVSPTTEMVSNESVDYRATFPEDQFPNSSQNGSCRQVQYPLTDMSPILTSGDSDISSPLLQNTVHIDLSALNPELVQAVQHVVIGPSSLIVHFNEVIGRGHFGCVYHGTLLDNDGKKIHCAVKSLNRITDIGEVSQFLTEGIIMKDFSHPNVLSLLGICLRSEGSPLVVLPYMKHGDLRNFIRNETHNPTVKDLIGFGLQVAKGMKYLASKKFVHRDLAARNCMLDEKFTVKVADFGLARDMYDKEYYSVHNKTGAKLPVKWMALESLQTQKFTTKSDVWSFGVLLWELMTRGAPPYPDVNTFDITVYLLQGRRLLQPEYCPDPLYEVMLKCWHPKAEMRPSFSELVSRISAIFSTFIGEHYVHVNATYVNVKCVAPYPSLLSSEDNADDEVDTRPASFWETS
Experiment [10] concerns the target Phosphatidylinositol 5-phosphate 4-kinase type-2 alpha (Homo sapiens) (UniProt P48426). Put plainly: PIP4K2a(h) Eurofins kinase panel. To be noted: Compound concentration 1.0 uM.
The target in experiment [11] is Serine/threonine-protein kinase 35 (Homo sapiens) (UniProt Q8TDR2). The experiment can be described thus: CLIK1(h) Eurofins kinase panel. The following applies: Compound concentration 1.0 uM.
The target in experiment [12] is Phosphatidylinositol 4-phosphate 5-kinase type-1 alpha (Homo sapiens) (UniProt Q99755). Put plainly: PIP5K1a(h) Eurofins kinase panel. The following applies: Compound concentration 1.0 uM.
Phosphatidylinositol 4-phosphate 5-kinase type-1 alpha (Homo sapiens), sequence (Q99755 whole entry): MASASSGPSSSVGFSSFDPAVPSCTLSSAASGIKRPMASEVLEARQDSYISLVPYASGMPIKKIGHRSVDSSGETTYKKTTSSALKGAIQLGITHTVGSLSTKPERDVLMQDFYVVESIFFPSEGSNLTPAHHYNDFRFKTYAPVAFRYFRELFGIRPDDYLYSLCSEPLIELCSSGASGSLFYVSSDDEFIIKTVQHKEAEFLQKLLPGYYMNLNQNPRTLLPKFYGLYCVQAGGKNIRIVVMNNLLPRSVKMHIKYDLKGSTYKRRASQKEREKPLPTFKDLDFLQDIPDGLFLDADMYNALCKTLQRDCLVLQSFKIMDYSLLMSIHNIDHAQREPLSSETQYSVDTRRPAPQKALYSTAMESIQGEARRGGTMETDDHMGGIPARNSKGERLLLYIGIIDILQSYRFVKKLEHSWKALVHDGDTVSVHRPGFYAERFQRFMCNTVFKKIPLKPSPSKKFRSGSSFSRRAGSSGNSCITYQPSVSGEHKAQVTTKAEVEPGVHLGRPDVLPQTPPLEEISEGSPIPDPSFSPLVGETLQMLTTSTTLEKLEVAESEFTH

Molecules are shown by their SMILES.

Serine/threonine-protein kinase pim-1 (Homo sapiens), sequence (P11309 whole entry, looked up): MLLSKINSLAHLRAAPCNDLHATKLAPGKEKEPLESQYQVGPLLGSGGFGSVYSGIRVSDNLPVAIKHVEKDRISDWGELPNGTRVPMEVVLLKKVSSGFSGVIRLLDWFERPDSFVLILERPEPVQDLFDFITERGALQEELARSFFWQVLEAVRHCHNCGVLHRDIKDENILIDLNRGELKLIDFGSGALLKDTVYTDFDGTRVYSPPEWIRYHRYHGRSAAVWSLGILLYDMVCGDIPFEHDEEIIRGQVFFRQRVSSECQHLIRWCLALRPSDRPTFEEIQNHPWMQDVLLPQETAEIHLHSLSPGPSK
Serine/threonine-protein kinase 24, sequence (Q9Y6E0 whole entry): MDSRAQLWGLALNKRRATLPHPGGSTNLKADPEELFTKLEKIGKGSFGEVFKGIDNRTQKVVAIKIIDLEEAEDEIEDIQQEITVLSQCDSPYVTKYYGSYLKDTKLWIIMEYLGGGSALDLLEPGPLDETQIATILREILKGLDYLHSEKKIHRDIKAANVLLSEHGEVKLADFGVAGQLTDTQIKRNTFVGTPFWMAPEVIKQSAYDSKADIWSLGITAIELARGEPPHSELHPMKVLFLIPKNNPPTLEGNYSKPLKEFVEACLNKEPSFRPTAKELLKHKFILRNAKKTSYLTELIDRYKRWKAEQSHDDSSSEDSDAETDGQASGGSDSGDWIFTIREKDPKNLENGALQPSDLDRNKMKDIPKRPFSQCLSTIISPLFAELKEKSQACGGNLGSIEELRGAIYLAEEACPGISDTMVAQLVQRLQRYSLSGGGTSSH
Serine/threonine-protein kinase SIK1 (Homo sapiens), sequence (P57059 whole entry): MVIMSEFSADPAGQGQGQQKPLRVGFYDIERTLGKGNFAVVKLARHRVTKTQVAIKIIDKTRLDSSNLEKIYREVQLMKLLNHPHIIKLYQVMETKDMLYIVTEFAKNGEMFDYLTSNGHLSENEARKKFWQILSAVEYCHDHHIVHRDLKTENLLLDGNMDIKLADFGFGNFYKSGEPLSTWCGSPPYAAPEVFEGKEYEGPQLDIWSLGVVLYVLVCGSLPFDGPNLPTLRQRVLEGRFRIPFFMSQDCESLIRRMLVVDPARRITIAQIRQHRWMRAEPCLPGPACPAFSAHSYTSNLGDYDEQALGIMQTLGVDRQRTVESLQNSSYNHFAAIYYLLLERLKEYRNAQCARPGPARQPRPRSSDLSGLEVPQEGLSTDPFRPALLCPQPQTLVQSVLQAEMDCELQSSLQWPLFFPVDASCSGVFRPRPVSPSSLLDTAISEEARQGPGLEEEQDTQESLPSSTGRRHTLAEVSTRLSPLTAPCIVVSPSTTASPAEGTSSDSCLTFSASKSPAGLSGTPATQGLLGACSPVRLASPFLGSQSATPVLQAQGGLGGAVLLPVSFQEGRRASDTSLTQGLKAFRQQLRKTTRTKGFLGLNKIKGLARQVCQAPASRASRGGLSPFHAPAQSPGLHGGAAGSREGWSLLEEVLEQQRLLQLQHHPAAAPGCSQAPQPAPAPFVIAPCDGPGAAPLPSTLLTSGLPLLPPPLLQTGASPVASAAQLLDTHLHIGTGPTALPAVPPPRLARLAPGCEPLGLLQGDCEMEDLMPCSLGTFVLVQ

In the case of `CCc1ccccc1C(=O)Nc1n[nH]c2c(C)c(F)c(C3C(C#N)=C(C)N(C)C(C)=C3C#N)cc12` [BAY-3827], the % residual kinase activity in experiment [1] was 86%; in [2], 103%; in experiment [3] it was 111%; in experiment [4], 100%; in experiment [5] it was 34%; in experiment [7] it was 103%. Besides, the % residual kinase activity is 119% in experiment [8]; 1% in experiment [9]; 105% in experiment [10]; 80% in [11]; 100% in [12]. Besides, the “Cell Proliferation IC50” value in the experiment on HeLa turned out to be 25700 nM. In addition, the IC50 in experiment [6] is 94 nM.

As usually defined, the IC50 is the concentration needed to halve the response being measured. Lower therefore signals greater potency.
